According to patent publication US9663479B2, “γ-aminobutyric acid (GABA) analogues for the treatment of pain and other disorders” (Novassay S.A., priority 2013, dated 2017):

Biological target: α2δ-1 sub-unit (Homo sapiens (Human), UniProt P54289)
Assay: not given
Details: read-out: Literature IC50 nM; binding to α2δ-1 sub-unit, literature value; cited from earlier work

α2δ-1 sub-unit, sequence (P54289 whole entry, looked up): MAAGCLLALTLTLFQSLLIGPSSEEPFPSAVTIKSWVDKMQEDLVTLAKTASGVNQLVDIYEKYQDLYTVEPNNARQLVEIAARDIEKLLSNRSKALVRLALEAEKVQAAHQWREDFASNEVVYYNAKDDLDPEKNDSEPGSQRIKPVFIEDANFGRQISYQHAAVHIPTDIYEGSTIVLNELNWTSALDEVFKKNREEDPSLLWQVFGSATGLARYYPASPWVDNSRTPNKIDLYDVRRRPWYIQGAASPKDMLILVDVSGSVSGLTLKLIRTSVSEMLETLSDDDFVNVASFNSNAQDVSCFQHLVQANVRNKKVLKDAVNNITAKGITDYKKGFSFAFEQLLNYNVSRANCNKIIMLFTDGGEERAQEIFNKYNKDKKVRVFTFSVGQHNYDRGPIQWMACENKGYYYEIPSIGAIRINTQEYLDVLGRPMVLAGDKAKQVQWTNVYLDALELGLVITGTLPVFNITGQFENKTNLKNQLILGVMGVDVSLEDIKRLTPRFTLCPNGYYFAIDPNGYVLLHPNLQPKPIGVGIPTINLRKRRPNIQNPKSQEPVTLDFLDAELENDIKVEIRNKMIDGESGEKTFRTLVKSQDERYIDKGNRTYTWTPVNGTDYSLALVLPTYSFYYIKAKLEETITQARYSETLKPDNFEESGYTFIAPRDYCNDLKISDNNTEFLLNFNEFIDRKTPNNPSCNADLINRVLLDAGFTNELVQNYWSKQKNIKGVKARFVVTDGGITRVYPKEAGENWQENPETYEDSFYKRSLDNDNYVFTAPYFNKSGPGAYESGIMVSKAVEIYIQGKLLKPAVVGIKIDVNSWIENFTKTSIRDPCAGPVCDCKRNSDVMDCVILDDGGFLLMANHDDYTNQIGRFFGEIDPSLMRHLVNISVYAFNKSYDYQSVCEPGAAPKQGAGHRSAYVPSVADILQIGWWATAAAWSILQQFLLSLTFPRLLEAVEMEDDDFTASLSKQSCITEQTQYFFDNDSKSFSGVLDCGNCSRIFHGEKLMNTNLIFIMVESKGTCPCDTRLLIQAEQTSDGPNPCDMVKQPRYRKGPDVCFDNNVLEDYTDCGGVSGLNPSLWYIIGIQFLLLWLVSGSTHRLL

For `CC(C)CC(CN)CC(=O)O` (stereo not drawn) [Pregabalin, reference compound], which IC50 is on record?
The IC50 was 80 nM.

Tested on: human recombinant CACNA2D1 (Voltage-Gated Calcium Channel subunit α2δ-1 fragment)
Assay: Biacore surface plasmon resonance kinetic binding analysis on immobilised CACNA2D1
Details: SPR, CM5 chip, BSA reference subtracted
From the text: Method for determining kinetic binding parameters (association and dissociation rates) and affinities (KD) of GABA analogues to α2δ-1subunits.
It is well known in the art that binding affinity can be expressed as KD or equilibrium dissociation constant, whereby increasing binding affinity correlates with decreasing KD, which can be calculated from kinetic binding constants. Kinetic binding analysis of GABA analogues to α2δ-1subunits can be determined by surface plasmon resonance technology applied in Biacore™ SPR instruments (Biacore, GE Healthcare, Uppsala). Kinetic association rates (ka; k-on) and dissociation rates (kd; k-off) are obtained. Equilibrium dissociation constant (KD; affinity) values are calculated as k-off/k-on.
This example discloses that the GABA analogues ((1R,5S,6S)-6-((1H-tetrazol-5-yl)methyl)-3-ethylbicyclo[3.2.0]hept-3-en-6-yl)methanamine (“Test Compound”: prepared as described in Example 2) and (1R,5S,6S)-6-(aminomethyl)-3-ethylbicyclo[3.2.0]hept-3-en-6-yl]acetic acid (“Reference Compound”: prepared as described in WO 2010/079668 and US 2012/0071685A1) are capable of binding to a recombinant fragment of human Voltage-Gated Calcium Channel subunit (α2δ-1, CACNA2D1). […]

For `CCC1=C[C@@H]2[C@H](C1)C[C@]2(CN)Cc1nnn[nH]1` [Test Compound, ((1R,5S,6S)-6-((1H-tetrazol-5-yl)methyl)-3-ethylbicyclo[3.2.0]hept-3-en-6-yl)methanamine], which “Specific binding to human CACNA2D1 recombinant protein” value is on record?
The value was “able to specifically bind”.

Which “Specific binding to human CACNA2D1 recombinant protein” value does the source give for `CCC1=C[C@@H]2[C@H](C1)C[C@]2(CN)CC(=O)O` [Reference Compound, reference compound] here?
Its value is “able to specifically bind”.

Biological target: Human Cav1.2/β3/α2δ-1 Calcium Channel Membranes (α2δ-1 subunit) (Homo sapiens (Human), UniProt P54289)
Sequence (P54289 25-956): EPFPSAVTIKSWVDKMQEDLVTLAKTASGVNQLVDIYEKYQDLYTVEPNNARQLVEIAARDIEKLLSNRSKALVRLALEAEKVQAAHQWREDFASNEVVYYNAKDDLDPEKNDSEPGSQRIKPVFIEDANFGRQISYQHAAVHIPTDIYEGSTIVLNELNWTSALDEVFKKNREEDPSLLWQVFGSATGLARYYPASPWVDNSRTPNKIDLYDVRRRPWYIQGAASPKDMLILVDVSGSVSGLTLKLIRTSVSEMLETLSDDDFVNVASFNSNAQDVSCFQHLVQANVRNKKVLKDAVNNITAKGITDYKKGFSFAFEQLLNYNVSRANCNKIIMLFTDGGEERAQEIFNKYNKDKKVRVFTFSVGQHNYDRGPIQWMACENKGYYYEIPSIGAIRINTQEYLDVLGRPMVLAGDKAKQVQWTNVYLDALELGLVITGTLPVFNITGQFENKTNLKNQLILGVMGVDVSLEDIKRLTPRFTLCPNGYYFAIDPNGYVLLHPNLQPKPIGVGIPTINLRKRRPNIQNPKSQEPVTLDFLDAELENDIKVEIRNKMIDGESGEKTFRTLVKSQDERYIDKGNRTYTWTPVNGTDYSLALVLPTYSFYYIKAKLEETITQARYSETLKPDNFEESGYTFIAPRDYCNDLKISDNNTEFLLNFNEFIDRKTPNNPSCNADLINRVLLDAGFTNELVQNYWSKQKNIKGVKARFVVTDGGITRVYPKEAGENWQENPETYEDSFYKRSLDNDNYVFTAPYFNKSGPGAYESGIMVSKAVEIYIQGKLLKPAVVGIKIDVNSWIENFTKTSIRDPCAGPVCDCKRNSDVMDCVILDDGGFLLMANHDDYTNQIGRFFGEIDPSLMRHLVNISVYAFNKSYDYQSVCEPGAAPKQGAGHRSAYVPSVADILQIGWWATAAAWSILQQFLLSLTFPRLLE
Sequence (P54289 957-1103): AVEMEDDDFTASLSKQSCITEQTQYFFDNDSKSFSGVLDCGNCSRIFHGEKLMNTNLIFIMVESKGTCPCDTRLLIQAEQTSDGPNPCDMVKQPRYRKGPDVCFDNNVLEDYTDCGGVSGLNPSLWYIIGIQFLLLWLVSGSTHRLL
Sequence (Q13936 whole entry partner): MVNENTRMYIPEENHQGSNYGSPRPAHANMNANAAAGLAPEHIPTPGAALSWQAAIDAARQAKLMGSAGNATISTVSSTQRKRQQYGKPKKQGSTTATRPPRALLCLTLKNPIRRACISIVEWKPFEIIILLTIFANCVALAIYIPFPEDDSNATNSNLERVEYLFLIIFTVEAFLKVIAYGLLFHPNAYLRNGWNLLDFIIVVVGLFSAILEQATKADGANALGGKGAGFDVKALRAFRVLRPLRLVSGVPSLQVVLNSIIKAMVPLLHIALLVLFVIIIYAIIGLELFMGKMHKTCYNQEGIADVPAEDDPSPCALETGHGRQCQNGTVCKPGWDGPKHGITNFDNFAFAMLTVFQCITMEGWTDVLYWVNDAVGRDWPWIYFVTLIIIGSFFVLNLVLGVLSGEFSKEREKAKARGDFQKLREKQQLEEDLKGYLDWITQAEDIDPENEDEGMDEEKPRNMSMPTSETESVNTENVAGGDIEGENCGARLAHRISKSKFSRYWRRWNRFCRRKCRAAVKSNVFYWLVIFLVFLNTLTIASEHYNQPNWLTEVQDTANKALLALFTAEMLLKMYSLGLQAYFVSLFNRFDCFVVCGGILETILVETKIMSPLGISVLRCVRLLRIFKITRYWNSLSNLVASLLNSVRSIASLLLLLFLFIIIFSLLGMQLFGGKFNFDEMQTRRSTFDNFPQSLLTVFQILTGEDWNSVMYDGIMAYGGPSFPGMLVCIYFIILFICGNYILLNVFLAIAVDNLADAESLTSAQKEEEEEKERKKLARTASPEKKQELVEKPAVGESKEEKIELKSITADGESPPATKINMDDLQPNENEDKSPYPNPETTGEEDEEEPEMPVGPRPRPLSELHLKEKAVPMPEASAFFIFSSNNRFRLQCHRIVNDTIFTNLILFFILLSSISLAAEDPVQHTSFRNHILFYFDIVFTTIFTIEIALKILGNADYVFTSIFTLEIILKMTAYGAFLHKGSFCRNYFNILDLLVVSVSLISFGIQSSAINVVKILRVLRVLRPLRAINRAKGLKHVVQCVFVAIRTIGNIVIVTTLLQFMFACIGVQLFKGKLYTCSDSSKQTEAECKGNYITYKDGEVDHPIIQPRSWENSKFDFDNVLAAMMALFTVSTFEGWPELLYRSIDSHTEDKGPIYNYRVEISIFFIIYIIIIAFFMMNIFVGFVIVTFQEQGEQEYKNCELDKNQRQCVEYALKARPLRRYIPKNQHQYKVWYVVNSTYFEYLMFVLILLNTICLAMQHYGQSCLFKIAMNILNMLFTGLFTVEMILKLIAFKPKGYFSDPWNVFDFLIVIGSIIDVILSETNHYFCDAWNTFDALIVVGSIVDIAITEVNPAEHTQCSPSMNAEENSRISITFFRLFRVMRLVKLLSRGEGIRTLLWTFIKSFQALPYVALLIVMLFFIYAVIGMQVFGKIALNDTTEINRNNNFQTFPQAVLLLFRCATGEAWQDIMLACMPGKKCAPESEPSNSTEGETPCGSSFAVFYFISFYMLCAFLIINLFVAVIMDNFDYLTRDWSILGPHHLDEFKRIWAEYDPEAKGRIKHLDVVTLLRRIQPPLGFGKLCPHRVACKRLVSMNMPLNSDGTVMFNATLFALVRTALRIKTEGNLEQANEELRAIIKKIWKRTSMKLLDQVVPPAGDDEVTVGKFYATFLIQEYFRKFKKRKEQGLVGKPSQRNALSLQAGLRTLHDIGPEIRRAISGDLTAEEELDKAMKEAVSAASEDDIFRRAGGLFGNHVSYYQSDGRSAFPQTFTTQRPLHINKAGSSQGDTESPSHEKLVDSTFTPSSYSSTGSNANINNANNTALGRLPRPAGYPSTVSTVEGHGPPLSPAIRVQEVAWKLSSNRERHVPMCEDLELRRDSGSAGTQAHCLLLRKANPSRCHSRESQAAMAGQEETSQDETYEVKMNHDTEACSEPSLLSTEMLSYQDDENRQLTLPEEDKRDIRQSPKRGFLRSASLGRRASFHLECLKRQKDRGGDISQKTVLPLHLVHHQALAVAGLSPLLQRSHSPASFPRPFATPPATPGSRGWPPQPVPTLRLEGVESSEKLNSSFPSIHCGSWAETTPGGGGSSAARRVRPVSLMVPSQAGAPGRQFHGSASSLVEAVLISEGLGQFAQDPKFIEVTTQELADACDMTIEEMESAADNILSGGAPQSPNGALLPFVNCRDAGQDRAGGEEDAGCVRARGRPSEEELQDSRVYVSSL
Sequence (P54284 whole entry partner): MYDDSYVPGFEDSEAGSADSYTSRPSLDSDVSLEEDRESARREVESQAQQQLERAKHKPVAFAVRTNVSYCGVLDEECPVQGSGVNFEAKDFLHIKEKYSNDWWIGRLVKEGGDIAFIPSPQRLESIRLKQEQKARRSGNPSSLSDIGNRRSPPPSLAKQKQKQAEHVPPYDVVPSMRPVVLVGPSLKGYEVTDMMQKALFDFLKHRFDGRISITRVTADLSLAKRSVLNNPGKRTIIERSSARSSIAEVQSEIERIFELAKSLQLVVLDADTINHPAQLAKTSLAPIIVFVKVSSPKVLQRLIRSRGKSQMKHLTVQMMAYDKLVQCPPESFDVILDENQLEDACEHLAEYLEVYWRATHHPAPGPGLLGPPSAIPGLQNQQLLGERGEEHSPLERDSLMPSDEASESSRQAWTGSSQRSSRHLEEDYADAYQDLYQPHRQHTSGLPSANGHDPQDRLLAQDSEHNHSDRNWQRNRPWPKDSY
Assay: [3H]gabapentin scintillation proximity binding assay on calcium channel α2δ-1 subunit membranes
Details: not given
Procedure: This test was carried out in the following way.
Calcium Channel α2δ-1 Subunit Binding Assay
Human Cav1.2/β3/α2δ-1 Calcium Channel Membranes (Chantest) were thawed on ice, aliquotted and stored at −80° C. for subsequent use. Membranes were diluted to 200 μg/ml (3 μg/well final assay concentration (FAC)) in assay buffer (10 mM HEPES (Sigma), (pH7.4)). The [^3H]GBP (Perkin Elmer) stock solution was stored at −20° C. [^3H]GBP was diluted to 40 nM (10 nM FAC) in assay buffer. SPA beads (Perkin Elmer) were re-suspended at 100 mg/ml in 10 mM HEPES (pH 7.4). Beads were diluted to 40 mg/ml (0.6 mg/well FAC) in assay buffer. Nonspecific binding (NSB) was generated using an excess of pregabalin (Tocris). Pregabalin was solubilized in Milli-Q H2O at 10 mM. 10 mM pregabalin was diluted to 400 μM (100 μM FAC) in assay buffer.
Compounds were diluted to […] then half log diluted. These were then diluted 1:100 in assay buffer to a 4× assay concentration (1 μM FAC top dilution).
SPA beads 15 μl; membranes 15 μl; pregabalin or assay buffer/test compound 15 μl and [^3H]GBP 15 μl were added to a white 96 well isoplate, (Perkin Elmer). The assay plate was sealed and mixed for 10 s on a plate shaker then placed into a plate rack and slotted into the reader stacker.
The NSB values obtained by adding 100 μM pregabalin were subtracted from values obtained for compounds to generate a specific binding value. Specific binding in counts per minute (cpm) were plotted against compound concentration (M) and fitted using a 4 parameter logistic equation.

For `CC(C)CC(CN)CC(=O)O` (stereo not drawn) [Pregabalin, reference compound], which IC50 is on record?
Its IC50 is 0.023 µM.

Which IC50 does the source give for `CCNC[C@]1(Cc2nnn[nH]2)C[C@H]2CC(CC)=C[C@H]21` (racemic) [Formula 1 (Racemic), Racemic N-(((1R,5S,6S)-6-((1H-tetrazol-5-yl)methyl)-3-ethylbicyclo[3.2.0]hept-3-en-6-yl)methyl)ethanamine] here?
Its IC50 is no less than 0.5 µM.

For `CCC1=C[C@@H]2[C@H](C1)C[C@]2(CN)Cc1nc(=O)o[nH]1` (racemic) [Formula 3 (Racemic), Racemic 3-(((1R,5S,6S)-6-(aminomethyl)-3-ethylbicyclo[3.2.0]hept-3-en-6-yl)methyl)-1,2,4-oxadiazol-5(4H)-one], which IC50 is on record?
Its IC50 is 0.019 µM.

Which IC50 does the source give for `CCC1=C[C@@H]2[C@H](C1)C[C@]2(CN)Cc1nn[nH]n1` (racemic) [Formula 2 (Racemic), Racemic ((1R,5S,6S)-6-((1H-tetrazol-5-yl)methyl)-3-ethylbicyclo[3.2.0]hept-3-en-6-yl)methanamine] here?
The IC50 was 0.0042 µM.

For `CCC1=CC2C(C1)C[C@@]2(CN)Cc1nn[nH]n1` (single isomer, unassigned) [Formula 2 peak 1 (Chiral)], which IC50 is on record?
The IC50 was 0.165 µM.

For `CCC1=CC2C(C1)C[C@]2(CN)Cc1nn[nH]n1` (single isomer, unassigned) [Formula 2 peak 2 (chiral)], which IC50 is on record?
The IC50 was 0.0021 µM.
